The text below walks through data of US7846957B2, “Aromatase inhibition to enhance assisted reproduction” (Ares Trading S.A., priority 2001, dated 2010).

Holding throughout (format): in vivo, human
Test [1] has as its system patients who either failed to ovulate or ovulated with an endometrial thickness <5 mm in response to CC. Put plainly: Letrozole cycles vs CC cycles in patients with inadequate response to CC (Example 2). On the procedure: HCG 10,000 IU was given to trigger ovulation. CC was given in a dose of 50-100 mg on days 3-7 or 5-9.
The test system of test [2] is infertile patients (3 with PCOS and 4 with unexplained infertility). Put plainly: Letrozole alone in a single dose, ovarian stimulation and cycle monitoring for IUI (Example 3). The method, then: The estradiol levels in 9 treatment cycles in 7 infertile patients (3 with PCOS and 4 with unexplained infertility) undergoing ovarian stimulation and cycle monitoring for IUI who received a single 20 mg dose of letrozole on day 3 of the cycle. Follicle development was monitored by transvaginal ultrasound and by serum levels of estradiol and LH.

The test system of test [3] is PCOS and unexplained infertility undergoing IUI. Kind of test: Letrozole for Ovulation Induction: Summary (Example 5). From the text:
Patient Group: PCOS and unexplained infertility undergoing IUI.
Results: Pregnancy rate was higher with Letrozole VS CC in both kinds of regimen, ovulation rate was higher with Letrozole VS CC in PCOS patients (not reported for unexplained fertility), endometrial thickness was better with Letrozole.

The mark [4] stands for this setting: mean, single 20 mg dose on day 3.
Setting [5] is: mean, single 20 mg dose on day 3, listed as letrozole.
The mark [6] stands for this setting: single 20 mg dose on day 3, spread in brackets.

`CCN(CC)CCOc1ccc(C(=C(Cl)c2ccccc2)c2ccccc2)cc1.O=C(O)CC(O)(CC(=O)O)C(=O)O` [CC]: in test [1] (Mean), the “Day of hCG administration, Mean” value worked out at 12.6; the “Endometrial Thickness (Cm.), Mean” value is reported as 0.5 Cm; the “Estradiol (pmol/L) on day of hCG administration, Mean” value is listed as 2145 pmol/L; the “Estradiol per mature follicle (pmol/L), Mean” value is given as 1278 pmol/L. For the same molecule, in test [1] (Mean), the “Follicles > 1.5 Cm on day of hCG administration, Mean” value came out at 1.9; the “LH on day of hCG administration (IU/L), Mean” value was 16 IU/L; the “Number of Days from last letrozole tablet to hCG day, Mean” value stood at 4.4. Further, in test [1] (Median), the “Day of hCG administration, Median” value was determined as 12; the “Endometrial Thickness (Cm.), Median” value was 0.4 Cm; the “Estradiol (pmol/L) on day of hCG administration, Median” value amounted to 1668 pmol/L; the “Estradiol per mature follicle (pmol/L), Median” value is given as 1486 pmol/L. In test [1] (Median), the “Follicles > 1.5 Cm on day of hCG administration, Median” value came out at 2; the “LH on day of hCG administration (IU/L), Median” value was 8 IU/L; the “Number of Days from last letrozole tablet to hCG day, Median” value is recorded as 4. Further, in test [1] (Range), the “Day of hCG administration, Range” value is on record as 11-16; the “Endometrial Thickness (Cm.), Range” value is 0.4-0.8 Cm; the “Estradiol (pmol/L) on day of hCG administration, Range” value was in the range of 362 to 5210 pmol/L; the “Estradiol per mature follicle (pmol/L), Range” value lay within 177 to 2404 pmol/L. Moreover, in test [1] (Range), the “Follicles > 1.5 Cm on day of hCG administration, Range” value is on record as 1-5; the “LH on day of hCG administration (IU/L), Range” value is on record as 3-66 IU/L; the “Number of Days from last letrozole tablet to hCG day, Range” value was 2-7.

With `N#Cc1ccc(C(c2ccc(C#N)cc2)n2cncn2)cc1` [Letrozole, letrozole], in test [2] (7 patients, 9 treatment cycles, single 20 mg dose), the “Pregnancy was achieved (patients)” value was “one”. In test [2] (setting [4]), the “Estradiol on hCG day (pmol/L)” value is on record as 831 (359) pmol/L and the “Estradiol/mature follicle (pmol/L)” value was 390 (74) pmol/L. In test [2] (setting [5]), the “Estradiol on hCG day” value is 831 pmol/L and the “Estradiol/mature follicle” value was 390 pmol/L. In addition, in test [2] (setting [6]), the “Endometrial thickness on hCG day (cm)” value is 0.9 (0.11) cm, the “Follicles > 1.5 cm” value is 2.29 (1.3) and the “LH (IU/L)” value is reported as 19.1 (12.7) IU/L. Moreover, the ovulation rate result in test [3] (Letrozole VS CC in PCOS patients) was “higher”. For the same molecule, the Pregnancy rate entry in test [3] (Letrozole VS CC in both kinds of regimen (alone in PCOS; plus FSH in unexplained infertility)) was “higher”. The endometrial thickness entry in test [3] (Letrozole vs CC) is reported as “better”.
